Results on 25 molecules are retold here after patent US20260347333A1, “NOVEL COMPOUND AND USE THEREOF” (PROTIER BIOTECH INC., priority 2023, published 2026).

The target in this test is T1, Cereblon (CRBN) protein (Homo sapiens, UniProt Q96SW2).
T1 construct: DNA label for qPCR detection (not a peptide tag); host or cells: HEK-293
T1 sequence (Q96SW2 whole entry): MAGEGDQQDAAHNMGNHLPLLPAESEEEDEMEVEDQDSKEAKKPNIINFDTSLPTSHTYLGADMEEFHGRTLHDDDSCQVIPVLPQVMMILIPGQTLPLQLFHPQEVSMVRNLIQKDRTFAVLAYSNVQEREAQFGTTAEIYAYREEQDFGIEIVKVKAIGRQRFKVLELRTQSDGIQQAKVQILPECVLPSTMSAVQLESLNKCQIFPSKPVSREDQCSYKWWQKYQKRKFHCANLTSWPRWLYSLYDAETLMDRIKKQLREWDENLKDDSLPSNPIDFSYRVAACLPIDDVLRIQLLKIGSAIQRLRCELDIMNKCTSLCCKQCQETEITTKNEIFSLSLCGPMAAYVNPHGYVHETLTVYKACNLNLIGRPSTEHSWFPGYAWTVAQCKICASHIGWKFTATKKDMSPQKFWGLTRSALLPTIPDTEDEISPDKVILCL
Kind of test: CRBN binding affinity, E3scan (% Ctrl). Conditions: lower % Ctrl = stronger binding, DMSO 100% Ctrl. An excerpt: As used herein, the term “Cereblon (CRBN)” refers to a protein encoded by a human CRBN gene located at a cytogenetic location of 3p26.2 and a molecular location between base pairs 3,148,489 and 3,179,716 on chromosome 3 (UCSC Genome Browser on Human, December 2013 (GRCh38/hg38) assembly). CRBN is a substrate recognition component of a DCX (DDB1-CUL4-X-box) E3 protein ligase complex mediating ubiquitination and subsequent proteasomal degradation of a target protein. The DCX (DDB1-CUL4-X-box) E3 protein ligase complex may comprise at least CRBN, CUL4A, DDB1, and RBX1. The CRBN protein has two isoforms generated by alternative splicing: isoform 1 has 442 amino acids and a molecular weight of 50,546 Da; and isoform 2 has 441 amino acids and a molecular weight of 50,475 Da.
To confirm the binding affinity of the compounds synthesized in the Preparation Examples for a Cereblon (CRBN) protein, the following experiment was performed using E3scan™ from Eurofins.
Specifically, CRBN was produced using a HEK-293 cell line and labeled with DNA for qPCR detection. Streptavidin-coated magnetic beads were treated with a biotinylated small-molecule ligand at room temperature for 30 minutes to generate an affinity resin for E3scan analysis. The liganded beads were blocked with excess biotin and washed with a blocking buffer (SeaBlock (Pierce), 1% BSA, 0.05% Tween 20, 1 mM DTT) to remove unbound ligands and prevent non-specific binding. […] The test compound was prepared as a 100× stock in 100% DMSO and diluted directly into the assay solution. All reactions were performed in a polypropylene 384-well plate with a final reaction volume of 0.02 mL. […] Then, the beads were resuspended in an elution buffer (1×PBS, 0.05% Tween 20, 0.5 μM non-biotinylated affinity ligand) and incubated with shaking at room temperature for 30 minutes. The CRBN concentration in the eluate was measured by qPCR. […] A lower ‘% Ctrl’ indicates a stronger binding affinity.
What is called remaining activity is the signal under treatment as a percentage of the control signal. A low value points to a large loss of activity. In the case of `O=C1CCC(N2Cc3nc(C(=O)c4ccccc4)ccc3C2=O)C(=O)N1` (stereo not shown) [Compound 5, 3-(2-benzoyl-5-oxo-5,7-dihydro-6H-pyrrolo[3,4-b]pyridin-6-yl)piperidine-2,6-dione], the remaining activity at 5 µM lay within 1 to 10%.

In turn, `O=C1CCC(N2Cc3cc(C(=O)N4CCCC4)ccc3C2=O)C(=O)N1` (stereo not shown) [Compound 7, 3-(1-oxo-5-(pyrrolidine-1-carbonyl)isoindolin-2-yl)piperidine-2,6-dione] yielded a remaining activity at 5 µM of 0 to 0.1%. In the case of `CNc1ccc2cc(C(=O)c3ccc4c(c3)CN(C3CCC(=O)NC3=O)C4=O)[nH]c2c1` (stereo not shown) [Compound 22, 3-(5-(6-(methylamino)-1H-indole-2-carbonyl)-1-oxoisoindolin-2-yl)piperidine-2,6-dione] it was 0 to 0.1%; in that of `O=C1CCC(N2Cc3cc(C(=O)c4c[nH]c5ccccc45)ccc3C2=O)C(=O)N1` (stereo not shown) [Compound 4, 3-(5-(1H-indole-3-carbonyl)-1-oxoisoindolin-2-yl)piperidine-2,6-dione], 0.1 to 1%. Molecule `O=C1CCC(N2Cc3cc(C(=O)c4cn(-c5ccccc5)c5ccc(-c6ccccc6)cc45)ccc3C2=O)C(=O)N1` (stereo not shown) [Compound 25, 3-(5-(1,5-diphenyl-1H-indole-3-carbonyl)-1-oxoisoindolin-2-yl)piperidine-2,6-dione] came in with a remaining activity at 5 µM of 10 to 35%.

Molecule `O=C1CCC(N2Cc3cc(C(=O)c4cc5ccccc5o4)ccc3C2=O)C(=O)N1` (stereo not shown) [Compound 34, 3-(5-(benzofuran-2-carbonyl)-1-oxoisoindolin-2-yl)piperidine-2,6-dione] gave a remaining activity at 5 µM of 0 to 0.1%.

Take `O=C1CCC(N2Cc3cc(C(=O)N4Cc5cccc6cccc4c56)ccc3C2=O)C(=O)N1` (stereo not shown) [Compound 31, 3-(5-(1,2-dihydrobenzo[cd]indole-1-carbonyl)-1-oxoisoindolin-2-yl)piperidine-2,6-dione]: the remaining activity at 5 µM is 0 to 0.1%.

Molecule `O=C1CCC(N2Cc3cc(C(=O)c4cccc(Nc5ccccc5)c4)ccc3C2=O)C(=O)N1` (stereo not shown) [Compound 16, 3-(1-oxo-5-(3-(phenylamino)benzoyl)isoindolin-2-yl)piperidine-2,6-dione] showed a remaining activity at 5 µM of 0 to 0.1%. The value for `O=C1CCC(N2Cc3cc(C(=O)c4ccc(Nc5ccccc5)cc4)ccc3C2=O)C(=O)N1` (stereo not shown) [Compound 15, 3-(1-oxo-5-(4-(phenylamino)benzoyl)isoindolin-2-yl)piperidine-2,6-dione] was 0 to 0.1%. Molecule `O=C1CCC(N2Cc3cc(C(=O)N4Cc5ccccc5C4)ccc3C2=O)C(=O)N1` (stereo not shown) [Compound 36] had a remaining activity at 5 µM of 0 to 0.1%. With `O=C1CCC(N2Cc3cc(C(=O)c4ccccn4)ccc3C2=O)C(=O)N1` (stereo not shown) [Compound 12, 3-(1-oxo-5-picolinoylisoindolin-2-yl)piperidine-2,6-dione], the remaining activity at 5 µM lay in the range of 0 to 0.1%.

`O=C1CCC(N2Cc3cc(C(=O)C4CCN(Cc5ccccc5)CC4)ccc3C2=O)C(=O)N1` (stereo not shown) [Compound 11, 3-(5-(1-benzylpiperidine-4-carbonyl)-1-oxoisoindolin-2-yl)piperidine-2,6-dione] registered a remaining activity at 5 µM of 0 to 0.1%.

`O=C1CCC(N2Cc3cc(C(=O)c4cc(-c5ccccc5)c[nH]4)ccc3C2=O)C(=O)N1` (stereo not shown) [Compound 27, 3-(1-oxo-5-(4-phenyl-1H-pyrrole-2-carbonyl)isoindolin-2-yl)piperidine-2,6-dione]: the remaining activity at 5 µM lay in the range of 0 to 0.1%. Turning to `O=C1CCC(N2Cc3cc(C(=O)c4ccc(-c5ccccc5)[nH]4)ccc3C2=O)C(=O)N1` (stereo not shown) [Compound 28, 3-(1-oxo-5-(5-phenyl-1H-pyrrole-2-carbonyl)isoindolin-2-yl)piperidine-2,6-dione], the remaining activity at 5 µM was 1 to 10%. In the case of `O=C1CCC(N2Cc3cc(C(=O)c4c[nH]c5ccc(-c6ccccc6)cc45)ccc3C2=O)C(=O)N1` (stereo not shown) [Compound 24, 3-(1-oxo-5-(5-phenyl-1H-indole-3-carbonyl)isoindolin-2-yl)piperidine-2,6-dione] it was 10 to 35%; in that of `O=C1CCC(N2Cc3cc(C(=O)n4ncc5ccccc54)ccc3C2=O)C(=O)N1` (stereo not shown) [Compound 6, 3-(5-(1H-indazole-1-carbonyl)-1-oxoisoindolin-2-yl)piperidine-2,6-dione], 0 to 0.1%. The molecule `O=C1CCC(N2Cc3cc(C(=O)c4coc5ccccc45)ccc3C2=O)C(=O)N1` (stereo not shown) [Compound 37, 3-(5-(benzofuran-3-carbonyl)-1-oxoisoindolin-2-yl)piperidine-2,6-dione] yielded a remaining activity at 5 µM of 1 to 10%. Molecule `O=C1CCC(N2C(=O)c3ccc(C(=O)c4cc5ccccc5[nH]4)cc3C2=O)C(=O)N1` (stereo not shown) [Compound 10, 2-(2,6-dioxopiperidin-3-yl)-5-(1H-indole-2-carbonyl)isoindoline-1,3-dione] came in with a remaining activity at 5 µM of 1 to 10%. In the case of `O=C1CCC(N2Cc3cc(C(=O)c4ccc5cn[nH]c5c4)ccc3C2=O)C(=O)N1` (stereo not shown) [Compound 21, 3-(5-(1H-indazole-6-carbonyl)-1-oxoisoindolin-2-yl)piperidine-2,6-dione], the remaining activity at 5 µM lay in the range of 0 to 0.1%. Molecule `O=C1CCC(N2Cc3cc(C(=O)c4n[nH]c5ccccc45)ccc3C2=O)C(=O)N1` (stereo not shown) [Compound 17, 3-(5-(1H-indazole-3-carbonyl)-1-oxoisoindolin-2-yl)piperidine-2,6-dione] yielded a remaining activity at 5 µM of 0 to 0.1%. The value for `O=C1CCC(N2Cc3cc(C(=O)c4cc(-c5ccccc5)cs4)ccc3C2=O)C(=O)N1` (stereo not shown) [Compound 30, 3-(1-oxo-5-(4-phenylthiophene-2-carbonyl)isoindolin-2-yl)piperidine-2,6-dione] was 0 to 0.1%. In the case of `O=C1CCC(N2Cc3cc(C(=O)c4ccccc4)ccc3C2=O)C(=O)N1` (stereo not shown) [Compound 1, 3-(5-benzoyl-1-oxoisoindolin-2-yl)piperidine-2,6-dione] it was 1 to 10%. `O=C1CCC(N2Cc3cc(C(=O)c4cccc(-c5ccccc5)c4)ccc3C2=O)C(=O)N1` (stereo not shown) [Compound 26, 3-(5-([1,1′-biphenyl]-3-carbonyl)-1-oxoisoindolin-2-yl)piperidine-2,6-dione]: the remaining activity at 5 µM lay within 0 to 0.1%. In the case of `O=C1CCC(N2Cc3cc(C(=O)c4cc5ccccc5[nH]4)ccc3C2=O)C(=O)N1` (stereo not shown) [Compound 3, 3-(5-(1H-indole-2-carbonyl)-1-oxoisoindolin-2-yl)piperidine-2,6-dione], the remaining activity at 5 µM lay in the range of 0 to 0.1%. As to `O=C1CCC(N2Cc3cc(C(=O)c4cn(-c5ccccc5)c5ccccc45)ccc3C2=O)C(=O)N1` (stereo not shown) [Compound 35, 3-(1-oxo-5-(1-phenyl-1H-indole-3-carbonyl)isoindolin-2-yl)piperidine-2,6-dione], the remaining activity at 5 µM lay in the range of 0 to 0.1%.
